Measurements reported in US5229265A, “Process for analyzing clastogenic agents” (Litron Laboratories, priority 1990, dated 1993).
Where “and” joins values, the source holds several entries; their conditions need not be identical. Equal entries are not always repeated.

Test system: polychromatic cells (PCEs)
Experiment: PCE count in blood by flow cytometry
Type: in vivo, mouse
Conditions: MMS 100 μg/g body weight IP at 0 and 48 hours
Description: When two dyes are used for simultaneous micronucleus and PCE discrimination, the cell suspension is prepared as follows: The Hoechst 33258 working solution described above is prepared and is filtered through an 0.2 micron Acro-disk (Gilman Sciences). In addition, a propidium iodide (PI) working solution is prepared (5 mg PI/100 ml phosphate buffered saline (PBS)). A buffer-dye solution is then prepared by adding the PI solution (100 μl) and Hoechst 33258 working solution (25 μl) to PBS (867.5 μl). The resulting buffer-dye solution is then dispensed (992.5 μl) into samples tubes. A sample of fixed blood (15 μl) is then added to the corresponding tube. When blood from a malaria (P. berghei) infected mouse was fixed and stained by this procedure, the bivariate pattern shown in FIG. 1B resulted, in which a stronger red fluorescence signal was obtained. In this case, good resolution is achieved if BSA is omitted from the stained cell suspension. The pH of the stained solution is important for good fluorescence emission profiles and resolution of the different cell populations. With Hoechst 33258 and propidium iodide, good results can be obtained in the range from pH 6 to pH 8. Lower or higher pH levels cause a broadening of the fluorescence patterns which adversely affect the resolution of the PCes and micronucleated cells. Operationally,it is advisable to store the fixed samples and analyze freshly stained samples.
Although it is inappropriate to directly compare the number of MNs in the 0 hr and 96 hr samples because of this PCE change, it is possible to normalize the data to take into account said change. An increase in the number of PCEs will cause a decrease in the total number of MNs counted in the PCE window for a 96 hour sample. […]
Another staining embodiment of this invention involves the use of dual parameter data acquisition in conjunction with two dyes, Hoechst 33258 and propidium iodide so as to analyze both MNs and PCEs. […] Propidium iodide endows the PCEs with a strong red fluorescence signal which pulls them out of the RBC contour. […]

SMILES: COS(C)(=O)=O [MMS, methyl methanesulfonate]
- PCEs (96 hr) (Hoechst 33258 & propidium iodide): 17,684 PCEs per 500,000 cells and 15,408 PCEs per 500,000 cells and 13,095 PCEs per 500,000 cells and 14,356 PCEs per 500,000 cells
- PCE Factor (K) (96 hr/0 hr) (PCEs 96 hr/PCEs 0 hr per 100,000 total cells): 2.49 and 1.36 and 2.07 and 2.22 and 2.12
